Data on 17 molecules can be found in patent publication US20240360134A1, “PYRAZOLOPYRIMIDINES AND THEIR USES AS PDGFR INHIBITORS” (priority 2021, published 2024).

For orientation: IC50 means the concentration that inhibits the measured activity by half.

Chain of PDGFRβ (Q05030 whole entry, looked up): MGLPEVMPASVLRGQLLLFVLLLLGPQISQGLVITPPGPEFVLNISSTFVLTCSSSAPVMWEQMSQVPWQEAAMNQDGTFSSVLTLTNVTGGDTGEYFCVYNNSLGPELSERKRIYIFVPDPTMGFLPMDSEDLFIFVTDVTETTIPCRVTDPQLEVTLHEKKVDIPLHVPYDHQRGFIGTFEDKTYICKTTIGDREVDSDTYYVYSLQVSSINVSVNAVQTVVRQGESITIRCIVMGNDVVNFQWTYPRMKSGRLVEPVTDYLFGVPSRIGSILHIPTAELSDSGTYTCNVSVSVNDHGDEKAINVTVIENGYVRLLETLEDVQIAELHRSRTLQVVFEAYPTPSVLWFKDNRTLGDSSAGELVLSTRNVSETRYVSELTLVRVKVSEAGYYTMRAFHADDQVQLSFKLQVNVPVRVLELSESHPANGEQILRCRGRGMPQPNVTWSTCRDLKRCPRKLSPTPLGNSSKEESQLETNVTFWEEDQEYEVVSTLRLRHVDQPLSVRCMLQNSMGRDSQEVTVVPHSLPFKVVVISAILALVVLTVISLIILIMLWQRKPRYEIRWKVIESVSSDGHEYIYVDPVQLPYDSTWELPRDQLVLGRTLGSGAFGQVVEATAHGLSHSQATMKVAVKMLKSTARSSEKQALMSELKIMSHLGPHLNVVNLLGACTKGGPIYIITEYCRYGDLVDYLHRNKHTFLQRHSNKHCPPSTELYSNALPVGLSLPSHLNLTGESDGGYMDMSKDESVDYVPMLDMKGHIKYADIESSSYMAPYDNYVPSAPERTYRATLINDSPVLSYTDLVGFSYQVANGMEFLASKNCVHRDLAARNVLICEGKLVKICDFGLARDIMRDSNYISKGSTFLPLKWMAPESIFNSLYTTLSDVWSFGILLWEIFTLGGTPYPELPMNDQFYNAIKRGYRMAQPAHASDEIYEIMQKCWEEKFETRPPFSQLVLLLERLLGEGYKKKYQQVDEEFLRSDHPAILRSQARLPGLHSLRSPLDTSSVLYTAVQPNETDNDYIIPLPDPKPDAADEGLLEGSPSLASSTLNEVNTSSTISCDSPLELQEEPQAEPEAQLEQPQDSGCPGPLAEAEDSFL
Chain of VEGFR2, unphosphorylated (P35968 whole entry, looked up): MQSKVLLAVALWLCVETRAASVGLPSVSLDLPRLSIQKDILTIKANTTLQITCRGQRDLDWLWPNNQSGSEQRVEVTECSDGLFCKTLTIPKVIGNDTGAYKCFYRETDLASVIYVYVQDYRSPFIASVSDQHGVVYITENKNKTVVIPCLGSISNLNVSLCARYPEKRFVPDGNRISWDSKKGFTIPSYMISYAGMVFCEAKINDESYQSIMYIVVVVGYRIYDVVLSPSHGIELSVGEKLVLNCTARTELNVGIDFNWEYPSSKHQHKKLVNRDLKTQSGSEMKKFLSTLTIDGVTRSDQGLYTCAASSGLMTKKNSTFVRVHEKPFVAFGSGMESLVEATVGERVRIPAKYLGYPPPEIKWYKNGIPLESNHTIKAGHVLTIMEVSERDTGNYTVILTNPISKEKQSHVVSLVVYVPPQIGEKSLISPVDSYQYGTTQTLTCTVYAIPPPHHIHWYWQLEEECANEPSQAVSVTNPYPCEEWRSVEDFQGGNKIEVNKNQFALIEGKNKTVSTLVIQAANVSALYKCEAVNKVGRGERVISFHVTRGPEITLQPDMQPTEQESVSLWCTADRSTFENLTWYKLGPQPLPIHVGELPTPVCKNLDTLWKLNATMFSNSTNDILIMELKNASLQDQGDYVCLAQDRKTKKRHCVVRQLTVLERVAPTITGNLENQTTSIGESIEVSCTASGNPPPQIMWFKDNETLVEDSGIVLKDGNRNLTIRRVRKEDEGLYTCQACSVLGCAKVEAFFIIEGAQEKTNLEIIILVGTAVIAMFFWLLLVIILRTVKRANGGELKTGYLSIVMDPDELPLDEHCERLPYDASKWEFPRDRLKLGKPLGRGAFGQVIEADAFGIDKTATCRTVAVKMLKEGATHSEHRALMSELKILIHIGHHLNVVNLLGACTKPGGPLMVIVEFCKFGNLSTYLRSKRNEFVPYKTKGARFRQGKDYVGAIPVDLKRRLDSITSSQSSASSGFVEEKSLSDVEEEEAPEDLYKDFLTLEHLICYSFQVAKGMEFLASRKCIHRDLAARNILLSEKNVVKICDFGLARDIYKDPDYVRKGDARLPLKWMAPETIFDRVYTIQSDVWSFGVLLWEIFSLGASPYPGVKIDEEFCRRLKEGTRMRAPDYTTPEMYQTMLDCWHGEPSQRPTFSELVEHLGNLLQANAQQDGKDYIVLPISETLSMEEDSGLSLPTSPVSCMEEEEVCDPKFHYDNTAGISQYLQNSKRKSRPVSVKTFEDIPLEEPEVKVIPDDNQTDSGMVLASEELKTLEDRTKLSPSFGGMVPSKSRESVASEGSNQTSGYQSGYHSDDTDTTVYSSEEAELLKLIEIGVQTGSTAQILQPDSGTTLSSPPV

The first experiment addresses PDGFRβ (Rattus norvegicus (Rat), UniProt Q05030). The experiment in a line: PDGFRβ Cellular Assay (PDGFRb P-Y751 HTRF, PDGF-BB stimulated A10 cells). It counts as cell-based.
Settings: not given
On the procedure:
Cell Culture and Preparation: Cells are cultured according to ATCC procedure (5) with the addition of the antibiotic penicillin-streptomycin. If working from frozen, cells should be thawed according to ATCC procedure. Depending on the cell density of frozen vial, cells will need time to recover from thaw. An 80% confluent T75 flask should be enough for one 384 well plate.
Stock Solutions: Rat PDGFBB. A 100 ug/mL stock is prepared by reconstituting 50 ug in 500 μL of 4 mM HCl and 0.1% BSA. It can be stored for a month at 4° C., or aliquoted out and frozen in the −20/−80° C. to avoid multiple free-thaw cycles.
1× Cisbio cell lysis buffer. The cell lysis buffer is diluted 4-fold with molecular grade water. The blocking agent is then diluted 25-fold in the diluted lysis buffer.
Antibody solutions. Equal amounts d2 and cryptate antibody are diluted 20-fold in detection buffer.
Rat PDGFBB. A working stock of 100 ng/mL is created from the stock solution in 10% FBS culture media.
Step 1: Plating Cells: Media from the A10 cell flask is aspirated. The cells are rinsed with PBS and then trypsinized to disperse the cell layer. The cells are then pelleted are resuspended to 1.25e5 cells/mL. […] Plates are covered and placed in the incubator (37° C. 5% CO2) overnight to allow cells to adhere.
Step 2: Compound Dispense: Approximately 18 hours after plating, dispense 40 nL compound onto cells using Echo. […] The plate is returned to the incubator for 3 hours.
After 10 minutes the media is removed by flicking the plate.
Step 4: Cell lysis and antibody addition: 20 uL lysis buffer per well is added to the plate via Tempest. 5 uL antibody solution is added per well via the Tempest. The plate is placed on the shaker at 230 rpm for 1 hour at room temperature.
Step 5: Detection: The plate is read using the HTRF module on the BMG Pherastar. Data is analyzed using Genedata Screener.
IC50 values are determined from a 4-parameter fit, using the following equation: Y=Bottom+(Top−Bottom)/(1+10((Log IC50−X)*Hill slope)), where X=log10 of the compound concentration; top can be defined by PC; bottom defined by NC.
With `Cc1ncc(C(=O)NCCN2CCCC23COC3)cc1Nc1nn(C)c2nc(Nc3cnn(C)c3)ncc12` [Example 18, N-(2-(2-oxa-5-azaspiro[3.4]octan-5-yl)ethyl)-6-methyl-5-((1-methyl-6-((1-methyl-1H-pyrazol-4-yl)amino)-1H-pyrazolo[3,4-d]pyrimidin-3-yl)amino)nicotinamide], the IC50 amounted to 0.0401 µM.

The molecule `COC1CCN(CCNC(=O)c2cnc(C)c(Nc3nn(C)c4nc(Nc5cnn(C)c5)ncc34)c2)CC1` [Example 22, N-(2-(4-methoxypiperidin-1-yl)ethyl)-6-methyl-5-((1-methyl-6-((1-methyl-1H-pyrazol-4-yl)amino)-1H-pyrazolo[3,4-d]pyrimidin-3-yl)amino)nicotinamide] gave an IC50 of 0.0887 µM.

The molecule `Cc1ncc(C(=O)NCCN2CC[C@H](C)C2)cc1Nc1nn(C)c2nc(Nc3cncnc3)ncc12` [Example 12, (S)-6-methyl-5-((1-methyl-6-(pyrimidin-5-ylamino)-1H-pyrazolo[3,4-d]pyrimidin-3-yl)amino)-N-(2-(3-methylpyrrolidin-1-yl)ethyl)nicotinamide] gave an IC50 of 0.11 µM.

Staying with this experiment, now noted: A10 cells, 3 hours compound, 15 ng/mL PDGFbb for 10 minutes; read-out: PDGFR Cellular IC50.
For the molecule `Cc1ncc(NC(=O)CN(CCO)C2CCCC2)cc1Nc1nn(C)c2nc(Nc3cnn(C)c3)ncc12` [Example 79, 2-(cyclopentyl(2-hydroxyethyl)amino)-N-(6-methyl-5-((1-methyl-6-((1-methyl-1H-pyrazol-4-yl)amino)-1H-pyrazolo[3,4-d]pyrimidin-3-yl)amino)pyridin-3-yl)acetamide], the IC50 came out at 0.0235 µM.

On to `Cc1ncc(NC(=O)CN2CCC(F)(F)C2)cc1Nc1nn(C)c2nc(Nc3cnn(C)c3)ncc12` [Example 75, 2-(3,3-difluoropyrrolidin-1-yl)-N-(6-methyl-5-((1-methyl-6-((1-methyl-1H-pyrazol-4-yl)amino)-1H-pyrazolo[3,4-d]pyrimidin-3-yl)amino)pyridin-3-yl)acetamide], for which the IC50 is 0.0049 µM.

Consider `Cc1ncc(NC(=O)CN2C[C@@H](C)O[C@@H](C)C2)cc1Nc1nn(C)c2nc(Nc3cnn(C)c3)ncc12` [Example 78, 2-(cis-2,6-dimethylmorpholino)-N-(6-methyl-5-((1-methyl-6-((1-methyl-1H-pyrazol-4-yl)amino)-1H-pyrazolo[3,4-d]pyrimidin-3-yl)amino)pyridin-3-yl)acetamide], for which the IC50 was found to be 0.0083 µM.

As for `Cc1ncc(NC(=O)CN2CCC(F)(F)CC2)cc1Nc1nn(C)c2nc(Nc3cnn(C)c3)ncc12` [Example 72, 2-(4,4-difluoropiperidin-1-yl)-N-(6-methyl-5-((1-methyl-6-((1-methyl-1H-pyrazol-4-yl)amino)-1H-pyrazolo[3,4-d]pyrimidin-3-yl)amino)pyridin-3-yl)acetamide], the IC50 worked out at 0.0035 µM.

Regarding `Cc1ncc(NC(=O)CN(CCCO)C2CCCC2)cc1Nc1nn(C)c2nc(Nc3cnn(C)c3)ncc12` [Example 80, 2-(cyclopentyl(3-hydroxypropyl)amino)-N-(6-methyl-5-((1-methyl-6-((1-methyl-1H-pyrazol-4-yl)amino)-1H-pyrazolo[3,4-d]pyrimidin-3-yl)amino)pyridin-3-yl)acetamide], the IC50 was 0.0166 µM.

As to `Cc1ncc(NC(=O)CN2C[C@H](C)O[C@@H](C)C2)cc1Nc1nn(C)c2nc(Nc3cnn(C)c3)ncc12` (relative stereo) [Example 73, 2-(trans-2,6-dimethylmorpholino)-N-(6-methyl-5-((1-methyl-6-((1-methyl-1H-pyrazol-4-yl)amino)-1H-pyrazolo[3,4-d]pyrimidin-3-yl)amino)pyridin-3-yl)acetamide], the IC50 was 0.0053 µM.

Take `Cc1ncc(NC(=O)CN2CCC[C@@H]2C)cc1Nc1nn(C)c2nc(Nc3cnn(C)c3)ncc12` [Example 71, (S)—N-(6-methyl-5-((1-methyl-6-((1-methyl-1H-pyrazol-4-yl)amino)-1H-pyrazolo[3,4-d]pyrimidin-3-yl)amino)pyridin-3-yl)-2-(2-methylpyrrolidin-1-yl)acetamide]: the 50% inhibitory concentration (IC50) is 0.0017 µM.

Consider `COC(=O)Cc1cccc(Nc2ncc3c(Nc4cc(C(=O)NCCN5CCCC5(C)C)cnc4C)nn(C)c3n2)c1` [Example 43], for which the IC50 came to 0.024 µM.

Consider `Cc1ncc(NC(=O)CN2CC(F)(F)C2)cc1Nc1nn(C)c2nc(Nc3cnn(C)c3)ncc12` [Example 76, 2-(3,3-difluoroazetidin-1-yl)-N-(6-methyl-5-((1-methyl-6-((1-methyl-1H-pyrazol-4-yl)amino)-1H-pyrazolo[3,4-d]pyrimidin-3-yl)amino)pyridin-3-yl)acetamide], for which the IC50 was found to be 0.0131 µM.

As for `Cc1ncc(NC(=O)CN2CCC3(CC3)C2)cc1Nc1nn(C)c2nc(Nc3cnn(C)c3)ncc12` [Example 74, N-(6-methyl-5-((1-methyl-6-((1-methyl-1H-pyrazol-4-yl)amino)-1H-pyrazolo[3,4-d]pyrimidin-3-yl)amino)pyridin-3-yl)-2-(5-azaspiro[2.4]heptan-5-yl)acetamide], the IC50 turned out to be 0.0017 µM.

With `COCCn1cc(Nc2ncc3c(Nc4cc(NC(=O)CN5CCC56CCC6)cnc4C)nn(C)c3n2)cn1` [Example 123, N-(5-((6-((1-(2-methoxyethyl)-1H-pyrazol-4-yl)amino)-1-methyl-1H-pyrazolo[3,4-d]pyrimidin-3-yl)amino)-6-methylpyridin-3-yl)-2-(1-azaspiro[3.3]heptan-1-yl)acetamide], the 50% inhibitory concentration (IC50) worked out at 0.0047 µM.

Turning to `COC(=O)C(C)(C)c1cccc(Nc2ncc3c(Nc4cc(C(=O)NCCN5CCCC5(C)C)cnc4C)nn(C)c3n2)c1` [Example 46], the IC50 is 0.0185 µM.

The next experiment addresses VEGFR2, unphosphorylated (Homo sapiens (Human), UniProt P35968). Nature of the experiment: VEGFR ADP GLO assay. It counts as biochemical. As to conditions: 5 nM VEGFR2, 1.2 mM ATP, 1 mg/mL Srctide, 180 min. On the procedure: Assay buffer stock contains 50 mM HEPES pH7.5, 10 mM MgCl2, 0.01% Brij-35, and 1 mM EGTA.
Unphosphorylated VEGFR2. 52.6 μM in 50 mM Tris-HCl, pH 8.0, 50 mM NaCl, 5% Glycerol, 0.5 mM TCEP. Store at −80° C. in aliquots.
10 mg/mL srctide solution, prepared in Assay buffer (Assay buffer stock with 2 mM DTT, 0.1% Pluronic F-127, and 0.1 mg/mL ovalbumin). Sonicate 10 mg/ml Srctide solution for 10 minutes and then vacuum filter.
Assay buffer. Add DTT to 2 mM, Pluronic F-127 to 0.1% and ovalbumin to 0.1 mg/mL to Assay buffer stock.
2× kinase solution. Make a working solution of 10 nM unphosphorylated VEGFR2 in Assay buffer. Vacuum filter 2× kinase solution prior to running assay. Keep on ice until use.
2× substrate/ATP solution. Make a working solution of 2 mg/mL srctide and 2.4 mM ATP in Assay buffer. Keep on ice until use.
Step 1. Dispensing inhibitors/controls: Using Echo, dispense 10 nL/well compound serial dilutions in DMSO to columns 1-22 (in 384-well plates) or columns 1-44 (in 1536-well plates). Dilution series=11 pt, 3-fold dilutions. The top compound concentration in the source plate is 4 mM. The top compound concentration in the assay plate is 10 uM. Using Echo, dispense 10 nl/well DMSO to column 23 (in 384-well plates) or columns 45-47 (in 1536-well plates). These wells will serve as negative control wells Using Echo, dispense 10 nl/well 400 uM TAK-593 in DMSO to column 24 (in 384-well plates) or column 48 (in 1536-well plates). The final concentration of TAK-593 in the assay should be 1 uM. These wells will serve as positive control wells.
Step 2. Pre-incubation of inhibitors with kinase: Add 2 μL/well 2× kinase solution. Centrifuge at 1000 rpm for 1 min. Incubate at room temperature for 30 min.
Step 3. Kinase cascade reaction: Add 2 μL/well 2× substrate/ATP solution to initiate kinase reactions. Centrifuge at 1000 rpm for 1 min. Incubate at room temperature for 180 min.
Final concentrations of components in the assay:
Step 4. Quench: Add 2 uL/well ADP Glo Reagent+0.05% CHAPS. Centrifuge at 1000 rpm for 1 min; Incubate at room temperature for one hour.
Step 5. Detection: Add 2 uL/well Kinase Detection Reagent+0.05% CHAPS. Centrifuge at 1000 rpm for 1 min; Incubate at room temperature for 1 hour; Read Luminescence on a plate reader.
% Inhibition: % Inhibition=(NC−sample)/(NC−PC)*100 where NC is the mean of negative control (reactions without inhibitor), and PC is the mean of positive control (1 μM TAK-593).
IC50 values are determined from a 4-parameter fit, using the following equation: Y=Bottom+(Top−Bottom)/(1+10^(Log IC50-X)*Hill Slope), where X=log10 of the compound concentration; top can be defined by PC; bottom defined by NC.
(In ADP-Glo the light output rises with the ADP produced.)
Turning to `Cc1ncc(C(=O)NCCN2CCCC23COC3)cc1Nc1nn(C)c2nc(Nc3cnn(C)c3)ncc12` [Example 18, N-(2-(2-oxa-5-azaspiro[3.4]octan-5-yl)ethyl)-6-methyl-5-((1-methyl-6-((1-methyl-1H-pyrazol-4-yl)amino)-1H-pyrazolo[3,4-d]pyrimidin-3-yl)amino)nicotinamide], the concentration for half-maximal inhibition (IC50) is greater than 7.5 µM.

With `COC1CCN(CCNC(=O)c2cnc(C)c(Nc3nn(C)c4nc(Nc5cnn(C)c5)ncc34)c2)CC1` [Example 22, N-(2-(4-methoxypiperidin-1-yl)ethyl)-6-methyl-5-((1-methyl-6-((1-methyl-1H-pyrazol-4-yl)amino)-1H-pyrazolo[3,4-d]pyrimidin-3-yl)amino)nicotinamide], the concentration for half-maximal inhibition (IC50) is greater than 7.5 µM.

For the molecule `Cc1ncc(C(=O)NCCN2CC[C@H](C)C2)cc1Nc1nn(C)c2nc(Nc3cncnc3)ncc12` [Example 12, (S)-6-methyl-5-((1-methyl-6-(pyrimidin-5-ylamino)-1H-pyrazolo[3,4-d]pyrimidin-3-yl)amino)-N-(2-(3-methylpyrrolidin-1-yl)ethyl)nicotinamide], the IC50 is greater than 7.5 µM.

`Cc1ncc(C(=O)NCCN2CCCC2(C)C)cc1Nc1nn(C)c2nc(Nc3ccn(C)n3)ncc12` [Example 34, N-(2-(2,2-dimethylpyrrolidin-1-yl)ethyl)-6-methyl-5-((1-methyl-6-((1-methyl-1H-pyrazol-3-yl)amino)-1H-pyrazolo[3,4-d]pyrimidin-3-yl)amino)nicotinamide]: the IC50 was greater than 7.5 µM.

As for `Cc1ncc(C(=O)NCCN2CCCC2(C)C)cc1Nc1nn(C)c2nc(Nc3cnn(C)c3)ncc12` [Example 39, N-(2-(2,2-dimethylpyrrolidin-1-yl)ethyl)-6-methyl-5-((1-methyl-6-((1-methyl-1H-pyrazol-4-yl)amino)-1H-pyrazolo[3,4-d]pyrimidin-3-yl)amino)nicotinamide], the IC50 is greater than 7.5 µM.
